Measured values published in patent publication US20240238423A9, “TETRAHYDROISOQUINOLINE HETEROBIFUNCTIONAL BCL-XL DEGRADERS” (Treeline Biosciences, Inc., priority 2022, published 2024).
Like-named read-outs stand apart in the source and are kept apart here.

Target: T1, Human BCL-XL protein (N-terminal HiBiT tagged BCL-XL in HT1080 cells) (Homo sapiens, UniProt Q07817)
T1 construct: expressed in transfected cells; host or cells: HT-1080 (ATCC CCL-121), stably transduced with lentivirus pLV-UBC-N-HiBiT-BCL-XL-PGK-puro and selected with puromycin
T1 sequence (Q07817 whole entry): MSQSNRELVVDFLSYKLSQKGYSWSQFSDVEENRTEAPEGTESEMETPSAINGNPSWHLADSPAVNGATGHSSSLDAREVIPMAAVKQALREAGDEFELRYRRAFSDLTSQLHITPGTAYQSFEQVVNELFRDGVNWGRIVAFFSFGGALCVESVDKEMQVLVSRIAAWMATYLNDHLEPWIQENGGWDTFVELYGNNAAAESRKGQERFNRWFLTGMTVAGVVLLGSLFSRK
Assay: HiBiT based degradation assay
Format: cell-based
Settings: HT1080 cells expressing HiBiT-BCL-XL; for Ymin (24 h) / Ymin (6 h): BCL-XL degradation normalized with DMSO control; for DC50: BCL-XL degradation
Procedure, shortened: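 This HiBiT degradation assay measured loss of BCL-XL in HT1080 cells that stably express an N-terminal HiBiT-BCL-XL fusion delivered by lentivirus. Cells were added to compound-spotted 384-well plates, and luminescence was read on a PHERAstar FSX reader. Signal was expressed relative to DMSO controls, curves were fitted by four-parameter logistic regression, and for hook-shaped curves the Ymin point served as the bottom plateau when calculating EC50.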

| Structure (SMILES) | Ymin (24 h) | DC50 (24 h, read-out: EC50 (24 h)) [nM] | Ymin (6 h) | DC50 (6 h, read-out: EC50 (6 h)) [nM] |
| --- | --- | --- | --- | --- |
| Cc1c(O[C@H]2CC[C@H](CC(F)(F)C(=O)N3CCN(c4cccc5c(C6CCC(=O)NC6=O)nn(C)c45)CC3)CC2)cccc1-c1ccc(N2CCc3cccc(C(=O)Nc4nc5ccccc5s4)c3C2)nc1C(=O)O (stereo partly shown) [Compound 171a, 6-(8-(benzo[d]thiazol-2-ylcarbamoyl)-3,4-dihydroisoquinolin-2(1H)-yl)-3-(3-(((1r,4r)-4-(3-(4-(3-(2,6-dioxopiperidin-3-yl)-1-methyl-1H-indazol-7-yl)piperazin-1-yl)-2,2-difluoro-3-oxopropyl)cyclohexyl)oxy)-2-methylphenyl)picolinic acid] | B (50% ≤ Ymin < 70%) | 100 to 1000 | – | – |
| Cc1c(OCCCC2CCN(CCCOc3ccc4c(C5CCC(=O)NC5=O)nn(C)c4c3)CC2)cccc1-c1ccc(N2CCc3cccc(C(=O)Nc4nc5ccccc5s4)c3C2)nc1C(=O)O (stereo not shown) [Compound 172, 6-(8-(benzo[d]thiazol-2-ylcarbamoyl)-3,4-dihydroisoquinolin-2(1H)-yl)-3-(3-(3-(1-(3-((3-(2,6-dioxopiperidin-3-yl)-1-methyl-1H-indazol-6-yl)oxy)propyl)piperidin-4-yl)propoxy)-2-methylphenyl)picolinic acid] | A (Ymin < 50%) | < 100 | C (Ymin ≥ 70%) | 100 to 1000 |
| Cc1c(OCC[C@H](C)C2CCN(CC(=O)Nc3cccc4c(C5CCC(=O)NC5=O)nn(C)c34)CC2)cccc1-c1ccc(N2CCc3cccc(C(=O)Nc4nc5ccccc5s4)c3C2)nc1C(=O)O (stereo partly drawn) [Compound 173a, 6-(8-(benzo[d]thiazol-2-ylcarbamoyl)-3,4-dihydroisoquinolin-2(1H)-yl)-3-(3-((3S)-3-(1-(2-((3-(2,6-dioxopiperidin-3-yl)-1-methyl-1H-indazol-7-yl)amino)-2-oxoethyl)piperidin-4-yl)butoxy)-2-methylphenyl)picolinic acid] | B (50% ≤ Ymin < 70%) | < 100 | – | – |
| Cc1c(OCC[C@@H](C)C2CCN(CC(=O)Nc3cccc4c(C5CCC(=O)NC5=O)nn(C)c34)CC2)cccc1-c1ccc(N2CCc3cccc(C(=O)Nc4nc5ccccc5s4)c3C2)nc1C(=O)O (stereo partly drawn) [Compound 173b, 6-[8-(1,3-benzothiazol-2-ylcarbamoyl)-3,4-dihydro-1H-isoquinolin-2-yl]-3-[3-[(3R)-3-[1-[2-[[3-(2,6-dioxo-3-piperidyl)-1-methyl-indazol-7-yl]amino]-2-oxo-ethyl]-4-piperidyl]butoxy]-2-methyl-phenyl]pyridine-2-carboxylic acid] | B (50% ≤ Ymin < 70%) | 100 to 1000 | – | – |
| Cc1c(OCCO[C@H]2C[C@H]3CC[C@@H](C2)N3CC(=O)Nc2ccc3c(C4CCC(=O)NC4=O)nn(C)c3c2)cccc1-c1ccc(N2CCc3cccc(C(=O)Nc4nc5ccccc5s4)c3C2)nc1C(=O)O (stereo partly drawn) [Compound 174a, 6-(8-(benzo[d]thiazol-2-ylcarbamoyl)-3,4-dihydroisoquinolin-2(1H)-yl)-3-(3-(2-(((1R,3r,5S)-8-(2-((3-(2,6-dioxopiperidin-3-yl)-1-methyl-1H-indazol-6-yl)amino)-2-oxoethyl)-8-azabicyclo[3.2.1]octan-3-yl)oxy)ethoxy)-2-methylphenyl)picolinic acid] | A (Ymin < 50%) | < 100 | – | – |
| Cc1c(OCCO[C@@H]2C[C@H]3CC[C@@H](C2)N3CC(=O)Nc2ccc3c(C4CCC(=O)NC4=O)nn(C)c3c2)cccc1-c1ccc(N2CCc3cccc(C(=O)Nc4nc5ccccc5s4)c3C2)nc1C(=O)O (stereo partly drawn) [Compound 174b, 6-(8-(benzo[d]thiazol-2-ylcarbamoyl)-3,4-dihydroisoquinolin-2(1H)-yl)-3-(3-(2-(((1R,3s,5S)-8-(2-((3-(2,6-dioxopiperidin-3-yl)-1-methyl-1H-indazol-6-yl)amino)-2-oxoethyl)-8-azabicyclo[3.2.1]octan-3-yl)oxy)ethoxy)-2-methylphenyl)picolinic acid] | B (50% ≤ Ymin < 70%) | < 100 | C (Ymin ≥ 70%) | 100 to 1000 |
| Cc1c(Oc2ccc(CCCCN3CCN(c4cccc5c(C6CCC(=O)NC6=O)nn(C)c45)CC3)cc2)cccc1-c1ccc(N2CCc3cccc(C(=O)Nc4nc5ccccc5s4)c3C2)nc1C(=O)O (stereo not shown) [Compound 175, 6-(8-(benzo[d]thiazol-2-ylcarbamoyl)-3,4-dihydroisoquinolin-2(1H)-yl)-3-(3-(4-(4-(4-(3-(2,6-dioxopiperidin-3-yl)-1-methyl-1H-indazol-7-yl)piperazin-1-yl)butyl)phenoxy)-2-methylphenyl)picolinic acid] | B (50% ≤ Ymin < 70%) | < 100 | – | – |
| Cc1c(O[C@H]2CC[C@H](CC(=O)N3CCN(c4ccc5c(C6CCC(=O)NC6=O)nn(C)c5c4)CC3)CC2)cccc1-c1ccc(N2CCc3cccc(C(=O)Nc4nc5ccccc5s4)c3C2)nc1C(=O)O (stereo partly shown) [Compound 176a, 6-(8-(benzo[d]thiazol-2-ylcarbamoyl)-3,4-dihydroisoquinolin-2(1H)-yl)-3-(3-(((1r,4r)-4-(2-(4-(3-(2,6-dioxopiperidin-3-yl)-1-methyl-1H-indazol-6-yl)piperazin-1-yl)-2-oxoethyl)cyclohexyl)oxy)-2-methylphenyl)picolinic acid] | B (50% ≤ Ymin < 70%) | < 100 | – | – |
| Cc1c(OCC(F)(F)CN2C[C@@H](C)N(CC(=O)Nc3ccc4c(C5CCC(=O)NC5=O)nn(C)c4c3)[C@@H](C)C2)cccc1-c1ccc(N2CCc3cccc(C(=O)Nc4nc5ccccc5s4)c3C2)nc1C(=O)O (stereo partly drawn) [Compound 177a, 6-[8-(1,3-benzothiazol-2-ylcarbamoyl)-3,4-dihydro-1H-isoquinolin-2-yl]-3-[3-[3-[(3R,5S)-4-[2-[[3-(2,6-dioxo-3-piperidyl)-1-methyl-indazol-6-yl]amino]-2-oxo-ethyl]-3,5-dimethyl-piperazin-1-yl]-2,2-difluoro-propoxy]-2-methyl-phenyl]pyridine-2-carboxylic acid] | B (50% ≤ Ymin < 70%) | 100 to 1000 | – | – |
| Cc1c(Oc2ccc(CCCC(=O)N3CCN(c4ccc5c(C6CCC(=O)NC6=O)nn(C)c5c4)CC3)cc2)cccc1-c1ccc(N2CCc3cccc(C(=O)Nc4nc5ccccc5s4)c3C2)nc1C(=O)O (stereo not shown) [Compound 178, 6-(8-(benzo[d]thiazol-2-ylcarbamoyl)-3,4-dihydroisoquinolin-2(1H)-yl)-3-(3-(4-(4-(4-(3-(2,6-dioxopiperidin-3-yl)-1-methyl-1H-indazol-6-yl)piperazin-1-yl)-4-oxobutyl)phenoxy)-2-methylphenyl)picolinic acid] | B (50% ≤ Ymin < 70%) | < 100 | – | – |
| Cc1c(OCC(F)(F)CN2C[C@@H](C)N(CC(=O)N3CCN(c4cccc5c(C6CCC(=O)NC6=O)nn(C)c45)CC3)[C@@H](C)C2)cccc1-c1ccc(N2CCc3cccc(C(=O)Nc4nc5ccccc5s4)c3C2)nc1C(=O)O (stereo partly drawn) [Compound 179a, 6-[8-(1,3-benzothiazol-2-ylcarbamoyl)-3,4-dihydro-1H-isoquinolin-2-yl]-3-[3-[3-[(3R,5S)-4-[2-[4-[3-(2,6-dioxo-3-piperidyl)-1-methyl-indazol-7-yl]piperazin-1-yl]-2-oxo-ethyl]-3,5-dimethyl-piperazin-1-yl]-2,2-difluoro-propoxy]-2-methyl-phenyl]pyridine-2-carboxylic acid] | A (Ymin < 50%) | < 100 | – | – |
| Cc1c(OCC[C@@H]2CCCN(CC(=O)Nc3ccc4c(C5CCC(=O)NC5=O)nn(C)c4c3)C2)cccc1-c1ccc(N2CCc3cccc(C(=O)Nc4nc5ccccc5s4)c3C2)nc1C(=O)O (stereo partly drawn) [Compound 180a, 6-(8-(benzo[d]thiazol-2-ylcarbamoyl)-3,4-dihydroisoquinolin-2(1H)-yl)-3-(3-(2-((3S)-1-(2-((3-(2,6-dioxopiperidin-3-yl)-1-methyl-1H-indazol-6-yl)amino)-2-oxoethyl)piperidin-3-yl)ethoxy)-2-methylphenyl)picolinic acid] | B (50% ≤ Ymin < 70%) | < 100 | – | – |
| Cc1c(OCC[C@H]2CCCN(CC(=O)Nc3ccc4c(C5CCC(=O)NC5=O)nn(C)c4c3)C2)cccc1-c1ccc(N2CCc3cccc(C(=O)Nc4nc5ccccc5s4)c3C2)nc1C(=O)O (stereo partly drawn) [Compound 180b, 6-(8-(benzo[d]thiazol-2-ylcarbamoyl)-3,4-dihydroisoquinolin-2(1H)-yl)-3-(3-(2-((3R)-1-(2-((3-(2,6-dioxopiperidin-3-yl)-1-methyl-1H-indazol-6-yl)amino)-2-oxoethyl)piperidin-3-yl)ethoxy)-2-methylphenyl)picolinic acid] | B (50% ≤ Ymin < 70%) | < 100 | – | – |
| Cc1c(OCC(F)(F)CC2CCN(CC(=O)Nc3ccc4c(C5CCC(=O)NC5=O)nn(C)c4c3)CC2)cccc1-c1ccc(N2CCc3cccc(C(=O)Nc4nc5ccccc5s4)c3C2)nc1C(=O)O (stereo not shown) [Compound 181, 6-[8-(1,3-benzothiazol-2-ylcarbamoyl)-3,4-dihydro-1H-isoquinolin-2-yl]-3-[3-[3-[1-[2-[[3-(2,6-dioxo-3-piperidyl)-1-methyl-indazol-6-yl]amino]-2-oxo-ethyl]-4-piperidyl]-2,2-difluoro-propoxy]-2-methyl-phenyl]pyridine-2-carboxylic acid] | A (Ymin < 50%) | < 100 | – | – |
| Cc1c(O[C@H]2CC[C@H](CC(=O)N3CCN(c4cccc5c(C6CCC(=O)NC6=O)nn(C)c45)CC3)CC2)cccc1-c1ccc(N2CCc3cccc(C(=O)Nc4nc5ccccc5s4)c3C2)nc1C(=O)O (stereo partly shown) [Compound 182a, 6-(8-(benzo[d]thiazol-2-ylcarbamoyl)-3,4-dihydroisoquinolin-2(1H)-yl)-3-(3-(((1r,4r)-4-(2-(4-(3-(2,6-dioxopiperidin-3-yl)-1-methyl-1H-indazol-7-yl)piperazin-1-yl)-2-oxoethyl)cyclohexyl)oxy)-2-methylphenyl)picolinic acid] | B (50% ≤ Ymin < 70%) | < 100 | – | – |
